{"source": "patent US10946019B2", "about": "“Nurr1:RXR activating compounds for simultaneous treatment of symptoms and pathology of Parkinson's disease” (priority 2015, dated 2021)", "key": {"Nurr1:RXRα heterodimer": {"biological_target": "Nurr1:RXRα heterodimer (Homo sapiens (Human), UniProt P19793)", "sequence (P19793 whole entry)": "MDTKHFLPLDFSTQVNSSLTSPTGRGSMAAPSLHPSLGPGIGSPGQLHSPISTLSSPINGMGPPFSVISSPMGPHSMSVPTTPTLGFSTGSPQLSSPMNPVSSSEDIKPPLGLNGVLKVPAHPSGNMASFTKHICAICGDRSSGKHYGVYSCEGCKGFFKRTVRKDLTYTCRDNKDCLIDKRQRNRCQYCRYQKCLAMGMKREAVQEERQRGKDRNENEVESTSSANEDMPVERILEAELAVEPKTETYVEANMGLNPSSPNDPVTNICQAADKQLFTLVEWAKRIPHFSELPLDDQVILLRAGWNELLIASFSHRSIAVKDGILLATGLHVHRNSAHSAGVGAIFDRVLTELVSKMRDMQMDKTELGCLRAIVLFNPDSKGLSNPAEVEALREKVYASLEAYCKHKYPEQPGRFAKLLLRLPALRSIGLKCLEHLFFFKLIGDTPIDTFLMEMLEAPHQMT", "sequence (P43354 whole entry partner)": "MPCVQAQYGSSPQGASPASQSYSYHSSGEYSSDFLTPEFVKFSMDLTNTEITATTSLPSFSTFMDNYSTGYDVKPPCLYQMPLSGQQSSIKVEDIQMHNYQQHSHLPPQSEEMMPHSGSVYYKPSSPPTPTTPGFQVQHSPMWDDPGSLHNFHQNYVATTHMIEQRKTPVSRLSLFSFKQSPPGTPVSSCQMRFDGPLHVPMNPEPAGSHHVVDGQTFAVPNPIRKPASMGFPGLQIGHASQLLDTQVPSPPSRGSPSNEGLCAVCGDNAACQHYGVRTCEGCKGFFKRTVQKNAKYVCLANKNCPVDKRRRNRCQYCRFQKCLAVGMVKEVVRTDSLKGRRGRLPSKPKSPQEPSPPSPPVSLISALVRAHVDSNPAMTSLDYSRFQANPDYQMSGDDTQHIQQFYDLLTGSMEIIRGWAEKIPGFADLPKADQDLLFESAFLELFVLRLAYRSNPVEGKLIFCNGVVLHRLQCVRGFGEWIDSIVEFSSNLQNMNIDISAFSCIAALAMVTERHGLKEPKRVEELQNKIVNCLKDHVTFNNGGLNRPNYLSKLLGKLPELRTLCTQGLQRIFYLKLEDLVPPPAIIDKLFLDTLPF", "assay": "Nurr1:RXRα-dependent luciferase reporter (DR5-TK-Luc) transactivation assay", "assay_type": "cell-based", "details": "SHSY-5Y cells co-transfected with human Nurr1, RXRα and DR5-TK-Luc", "experimental": "The in vitro transactivation assay determined the capacity of the compounds of the invention to activate the Nurr1:RXR heterodimers. Naive SHSY-5Y cells were transiently co-transfected, using Lipofectamine 2000 (Invitrogen), with a plasmid expressing the human receptor Nurr1, a plasmid expressing the RXR human receptor (RXRα or RXRγ receptor) and a reporter plasmid DR5-TK-Luc. […] After incubation overnight, the expression of luciferase was measured (FIG. 1A)."}, "[1]": {"tested_on": "tyrosine hydroxylase (TH)", "assay": "Midbrain tyrosine hydroxylase expression by qPCR after administration to mice", "assay_type": "in vivo, mouse", "details": "mice, IP or intracerebroventricular 1 and 10 mg/kg, different time points", "description": "(§1) To assess the neuroprotective effect of compound 3, this compound was dosed to wt mice intraperitoneally (IP) at 10 mg/kg injections of compound 3 in Ethanol:PG:Saline 10:30:60. After 2 h and 4 h animals (n=3 per time point) were sacrificed, and their brains obtained. After extraction c-jun and tyrosine hydroxylase (TH) levels in brain extract were determined by qPCR (FIG. 1E, 1F).\nGiven the role of Nurr1:RXRα activation in the transcriptional regulation of DA biosynthesis genes, we tested whether compound 3 could increase DA levels in wt and ASYN transgenic mice (Tofaris et al. J. Neurosci. 26:3942-3950, 2006), which display reduced striatal DA levels after reaching adulthood. […] Aiming to model PD based on human genetic data, we also tested whether compound 3 could increase DA levels in ASYN transgenic mice. A single IP injection of compound 3 (10 mg/kg) was able increase striatal DA (t test p=0.01069) and DA metabolite levels in ASYN transgenics as well (FIG. 75C) in comparison to mice receiving vehicle."}, "[2]": {"assay": "Plasma and brain concentrations by LC-MS/MS after IP administration to mice", "assay_type": "in vivo, mouse", "description": "FIGS. 68A and 68B show the pharmacokinetic profile of XCT in blood plasma and in the brain of mice injected with this compound. […] Serial tail bleeds (n=3) were used for detection of the compound in plasma 1 and 2 hours after IP administration. Similarly, mice (n=3) were sacrificed 1 and 2 hours after IP administration and brains were dissected. The concentrations of the parent compound in plasma and brain were determined by LC-MS/MS.\nThe concentrations of the parent compound in plasma and brain were determined by LC/MSMS.\nXCT0135908 was administered to mice to test its bioactivity."}, "Nur77:RXRα heterodimers": {"biological_target": "Nur77:RXRα heterodimers (Homo sapiens (Human), UniProt P19793)", "sequence (P19793 whole entry, looked up)": "as the sequence (P19793 whole entry) above", "sequence (P22736 whole entry partner, looked up)": "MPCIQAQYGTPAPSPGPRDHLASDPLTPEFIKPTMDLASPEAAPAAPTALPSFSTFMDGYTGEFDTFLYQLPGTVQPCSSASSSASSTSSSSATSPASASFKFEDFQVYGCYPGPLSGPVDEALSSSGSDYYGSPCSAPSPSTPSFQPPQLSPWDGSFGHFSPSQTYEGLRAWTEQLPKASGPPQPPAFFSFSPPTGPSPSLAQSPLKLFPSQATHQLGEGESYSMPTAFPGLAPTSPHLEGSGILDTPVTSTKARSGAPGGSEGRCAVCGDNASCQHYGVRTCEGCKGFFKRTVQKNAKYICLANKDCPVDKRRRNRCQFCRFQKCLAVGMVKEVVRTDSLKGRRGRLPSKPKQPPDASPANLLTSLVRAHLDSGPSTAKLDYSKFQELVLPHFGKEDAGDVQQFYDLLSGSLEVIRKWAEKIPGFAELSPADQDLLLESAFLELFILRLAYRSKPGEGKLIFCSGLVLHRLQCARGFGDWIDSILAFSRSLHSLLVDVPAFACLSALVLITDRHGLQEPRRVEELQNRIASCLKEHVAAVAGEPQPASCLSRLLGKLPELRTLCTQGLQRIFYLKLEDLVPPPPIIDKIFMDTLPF", "assay": "Relative activation of Nurr1 and Nur77 in a luciferase reporter assay", "assay_type": "cell-based", "details": "FIG. 67"}, "c-jun": {"tested_on": "c-jun", "assay": "Midbrain c-jun expression by qPCR after administration to mice", "assay_type": "in vivo, mouse", "description": "FIGS. 69A-69C show the brain penetration, half-life, and c-jun transcriptional activation of compound 3. […] Mice (n=5) were sacrificed 1, 2, 4, 8 and 24 hours after IP administration and brains were dissected 1, 2, 4, 8 and 24 hours post administration. The concentrations of the parent compound in plasma and brain were determined by LC/MSMS.\nas §1"}, "[3]": {"tested_on": "SHSY-5Y dopaminergic cells", "assay": "MPP+ induced cell death, MTT assay", "assay_type": "cell-based, human", "details": "12.5 μM, varying concentrations of MPP+", "description": "MPP+, eradicates approximately 75% of the cells in 24 hours. […] Naive Neuro2A cells (FIG. 2A) or SH-SY5Y neuroblastoma cells FIG. 2B,C) were cultured in RPMI 1640, 10% fetal bovine serum at 37° C. Cells were pretreated with compound 3 for 12-24 h. Subsequent change of culture medium with addition of 0, 1, 2 and 4 mM MPP+ induced cell death. MTT assays determined the relative number of surviving cells FIG. 2D).\nSuch assays were performed, for instance, by adding compound 46 (12.5 μM) to human origin SHSY-5Y dopaminergic cells in which death was induced by the mitochondria complex I inhibitor MPP+ (1-methyl-4-phenylpyridinium), the active metabolite of MPTP (1-methyl-4-phenyl-1,2,3,6-tetrahydropyridine). […] Most of the MPP+-treated cells receiving vehicle died, while the few surviving cells remained attached to the plate but were rounded and had lost all projections. These morphological changes indicated impaired neuronal function. On the contrary, cells treated with compound 46 appeared healthy, flattened, well-attached, and their projections remained intact.\nWe examined the neuroprotective capability of Nurr1:RXRα heterodimer activation in SHSY-5Y cells where death was induced by either the oxidative stress related H2O2 or the mitochondria complex I inhibitor MPP+ (1-methyl-4-phenylpyridinium) (FIG. 72B). […] The protection conferred by compound 3 was Nurr1-dependent, since it was abrogated by knocking-down endogenous Nurr1 mRNA (FIGS. 1E and 72D). The neuroprotective effects of compound 3 extend to damage induced by the PD-associated mutation G2019S in the Leucine-Rich Repeat Kinase 2 (LRRK2) gene, the most common genetic defect associated with clinical PD (Tofaris et al. J. Neurosci. 26:3942-3950, 2006). Rat cortical neurons, co-transfected with CMV-GFP for identification, and CMVLRRK2-G2019S cDNAs show increased apoptosis as assessed by DAPI staining, compared to control neurons co-transfected with a LRRK2 wt cDNA."}}}
{"molecule": "C=CCc1c(C)nc(-c2ccccc2)nc1Nc1ccc(C(=O)OCCCOc2ccc(C[C@H](N)C(=O)O)cc2)cc1", "note": "[Example 32, (S)-2-(4-(3-(4-(5-allyl-6-methyl-2-phenylpyrimidin-4-ylamino)benzoyloxy)propoxy)phenyl)-1-carboxyethanaminium chloride]", "values": [{"measurement": "EC50", "setting": "Nurr1:RXRα heterodimer", "value": 5, "unit": "µM"}]}
{"molecule": "Cc1nc(-c2ccccc2)nc2c1cc(C)n2-c1ccc(C(=O)O)cc1", "note": "[Example 45, 4-(4,6-dimethyl-2-phenyl-7H-pyrrolo[2,3-d]pyrimidin-7-yl)benzoic acid]", "values": [{"measurement": "EC50", "setting": "Nurr1:RXRα heterodimer", "value": 2.5, "unit": "µM"}]}
{"molecule": "C=CCc1c(C)nc(-c2ccccc2)nc1Nc1ccc(C(=O)O)cc1", "note": "[XCT0135908, reference compound]", "values": [{"measurement": "midbrain TH expression", "setting": "[1]", "value": "did not result in any expression alterations"}, {"measurement": "compound stability in vivo", "setting": "[2]; mice, 1 and 2 hours after IP, plasma and brain homogenates", "value": "low compound stability"}, {"measurement": "brain penetration", "setting": "[2]; mice, IP administration", "value": "minimal brain penetration"}, {"measurement": "Kp", "setting": "[2]; mouse, brain homogenate / blood plasma, mice, 1 and 2 hours after IP XCT (printed 1 μg/kg), LC-MS/MS", "value": "< 0.03"}, {"measurement": "relative activation of Nur77:RXRα vs Nurr1:RXRα heterodimers", "setting": "Nur77:RXRα heterodimers", "value": "preferentially activates Nur77:RXRα heterodimers and not Nurr1:RXRα heterodimers"}, {"measurement": "midbrain c-jun expression", "setting": "c-jun; IP or intracerebroventricular 1 and 10 mg/kg, different time points", "value": "did not result in any expression alterations"}]}
{"molecule": "C=CCc1c(C)nc(-c2ccccc2)nc1Nc1ccc(C(=O)Oc2ccc(C[C@H](N)C(=O)O)cc2)cc1", "note": "[Example 31, (S)-2-(4-(4-(5-allyl-6-methyl-2-phenylpyrimidin-4-ylamino)benzoyloxy)phenyl)-1-carboxyethanaminium chloride]", "values": [{"measurement": "EC50", "setting": "Nurr1:RXRα heterodimer", "value": 10, "unit": "µM"}]}
{"molecule": "Cc1nc(-c2ccccc2)nc2c1cc(C)n2-c1ccc(C(=O)O)cc1Br", "note": "[Example 46, 3-bromo-4-(4,6-dimethyl-2-phenyl-7H-pyrrolo[2,3-d]pyrimidin-7-yl)benzoic acid]", "values": [{"measurement": "cell survival against MPP+", "setting": "[3]", "value": "significantly increased the survival of cells"}, {"measurement": "EC50", "setting": "Nurr1:RXRα heterodimer", "value": 0.7, "unit": "µM"}, {"measurement": "bioavailability", "setting": "[2]; mouse, in vivo, ip", "value": "highly bioavailable"}, {"measurement": "brain penetration", "setting": "[2]; mouse, in vivo, ip", "value": "capable of crossing the blood brain barrier"}, {"measurement": "c-jun transcriptional activation in the midbrain", "setting": "c-jun; IP compound 46, qPCR 2 hours after administration", "value": "significant c-jun transcriptional activation"}]}
{"molecule": "C=CCc1c(C)nc(-c2ccccc2)nc1Nc1ccc(C(=O)OCOC(=O)C(C)(C)C)cc1", "note": "[Example 30, pivaloyloxymethyl 4-(5-allyl-6-methyl-2-phenylpyrimidin-4-ylamino)benzoate]", "values": [{"measurement": "EC50", "setting": "Nurr1:RXRα heterodimer", "value": 2, "unit": "µM"}]}
